Legend:
SEC receptor [1] = assay: Binding of fluorescein labeled peptide to hepatoma cells (fluorescent cells); type: cell-based, human
Description: HuH7, HepG2 (high) and HepG2 (low) cells were plated in six well plates and transfected as described above. Fluorescein labeling was carried out with fluorescein isothiocyanate, as described previously [Mann and Fish (1972) Methods of Enzymology 26:28-42]. Briefly, the C1315 peptide (145 μg) was incubated with 1 mg of fluorescein isothiocyanate for 1 hr at room temperature. Following incubation, 10 mg/ml glycine was added to destroy excess reagent, the pH was adjusted to 6.0 by the addition of 1N HCl and the labeled peptide was then purified on a Sephadex G10 column (Bio-Rad).
Two days following transfection, cells were washed with Ca^2+ /Mg^2+ PBS, incubated with 100 nM fluorescein labeled C1315 peptide and diluted in binding buffer (DMEM containing 50 mM Hepes, 0.1 mg/ml cytochrome c, 0.01% Tween 80, 2 mg/ml bovine serum albumin) at 4° C. Individual cells were imaged on a Zeiss axiovert 35 microscope at an excitation wavelength of 493.5 nm and a measurement wavelength of 530 nm. Digital images were captured by a cooled CCD camera model CH250 for 25 seconds (Photometrics, Ltd., Tucson, Ariz.) and quantified by a Nu 2000 camera controller board (Photometrics) with a Macintosh Quadra 900 configuration. Data was processed with Oncor image software (Oncor Imaging, Rockville, Md.).
Both HuH7 and HepG2 cell lines were transfected with the pCMV lac Z II plasmid coding for the β-galactosidase protein as a complex with the C1315 peptide carrier or using Lipofectin®, as described above; three days after transfection, the cells were harvested and β-galactosidaseactivity was determined. Cells staining blue represent cells expressing β-galactosidase; fluorescent cells represent cells which bound the fluoresceinated C105Y peptide. Cells which were counted as blue or fluorescent were intensely stained. The average % values represent the number of cells which were blue or fluorescent per 100 randomly selected cells. The results represent 6 independent experiments conducted. […]

hepatoma cells = assay: Cell death / viability during transfection of hepatoma cells; details: 10 fold molar excess
Description: After addition of the complex and/or Lipofectin®, all cells were incubated at 37° C. for six hours. Cells were then rinsed with Ca^2+ /Mg^2+ PBS and fresh growth media added and incubated at 37° C. (with a change of media every 2 days) until the appropriate functional assay was performed. Competition experiments were conducted by transfecting HepG2 (high) cells with 1.11 pmol C1 315 carrier condensed DNA in the presence and absence of a 10 fold excess free C1315 peptide. All transfections were done in duplicate.

SEC receptor [2] = assay: 125I-C105Y cell surface SEC receptor binding, Scatchard analysis; parameters: species or system human; details: for Kd: 4° C.
Description: Peptide C105Y was radio-iodinated by a modification of the chloramine T method [Hunter and Greenwood (1962) Nature 194:49] as follows. Briefly, approximately 50 μg of the C105Y peptide in 20 μl PBS was mixed with 20 μl chloramine T (120 mg/10 ml) and 1 mCi ^125 I (DuPont-New England Nuclear, Boston, Mass.). The reaction mixture was incubated for 30 seconds at room temperature and then 50 μl of sodium metabisulfite (36 mg/10 ml) was added. The labeled C105Y peptide was purified on a Sephadex G10 column (Bio-Rad) which had been blocked by application of 3 mg/ml BSA in PBS prior to the addition of the iodinated peptide. The specific radioactivity of ^125 I peptide C105Y ranged between 3,500 and 11,700 dpm/ng.
HuH7 cells and two populations of HepG2 cells were studied. Cells were plated in 24 well tissue culture plates, allowed to become confluent, then thoroughly washed with phosphate-buffered saline containing 1 mM CaCl2 and 2.5 mM MgCl2 (Ca^2+ /Mg^2+ PBS) and incubated at 4° C. for 2 h with ^125 I-labeled ligand (e.g., C105Y) at concentrations of 12.5 to 400 nM in the absence or presence of 200 fold excess unlabeled ligand and diluted in binding medium (DMEM containing 50 mM HEPES, 0.1 mg/ml cytochrome c, 0.01% Tween 80, 2 mg/ml bovine serum albumin). The cells were then rinsed in Ca^2+ Mg^2+ PBS, homogenized in 1 N NaOH, and cell-associated radioactivity determined. Non-specific binding was determined by incubating cells with a 200 fold molar excess of cold ligand. Specific binding was defined as the difference between total and non-specific binding. Binding parameters were determined by Scatchard analysis. Binding assays were performed on all three cell lines [HuH7, HepG2 (high), and HepG2 (low)] simultaneously with the same batch of iodinated C105Y peptide so that the proper comparisons could be made.
In FIG. 22, the specific binding (expressed as cpm/one million cells) is plotted against the concentration of iodinated C105Y ppeptide (nM). Traces are shown for the specific binding of ^125 I-C105Y to HuH7 cells (.smallcircle.), HepG2 (high) cells (.quadrature.) and HepG2 (low) cells (.diamond.). Specific binding was determined by subtracting […].

Description for total serum cholesterol: Six adult male Watanabe rabbits (2.8-3.2 Kg of bodyweight) were used in these studies. […] In order to introduce the DNA complex into the animal, we perform a single injection of 3-10 ml of the DNA-complex solution (~400-900 mM NaCl) into the marginal ear vein of the rabbit. Approximately 1.5 ml of blood was drawn from the ear artery at 4 p.m. The determination of the concentration of serum cholesterol was performed in the Clinical Laboratory of University Hospitals of Cleveland from 300 μl of serum. At different time points following the introduction of the DNA complex, a rabbit was subjected to a liver biopsy.

For `CC[C@H](C)C(=O)O[C@H]1C[C@@H](C)C=C2C=C[C@H](C)[C@H](CC[C@@H]3C[C@@H](O)CC(=O)O3)[C@H]21` [lovastatin], the “cholesterol concentration relative to that prior to the first gene transfer” value (total serum cholesterol; rabbit #774, gene transfer followed by 10 mg per day for 10 weeks) was 40% and the “further reduction in the levels of cholesterol” value (total serum cholesterol; rabbit #774 after gene transfer, 10 mg per day orally for 10 weeks) was 20%.
In the case of CFLEAIPMSIPPEVKFNKPFVFLIIHRD [C1315], the “Average % Fluorescent Cells” value (SEC receptor [1]; HepG2(high)) is reported as 20.4 ± 11.2%, the “Average % Fluorescent Cells” value (SEC receptor [1]; HepG2(low)) is reported as 1.8 ± 1.4% and the “Average % Fluorescent Cells” value (SEC receptor [1]; HuH7) is reported as 14.3 ± 4.0%. For the same molecule, the “effect of excess free peptide on cell viability” value (hepatoma cells) was “no effect on cell viability”.
With CSIPPEVKFNKPFVYLI [C105Y] the “binding by HuH7 cells relative to HepG2 (high), more” value (SEC receptor [2]) was 1.5 fold, the “specific binding by HepG2 (low) cells relative to HepG2 (high) cells, less” value (SEC receptor [2]) was 7.5 fold and the “specific binding by HepG2 (low) cells relative to HuH7 cells, less” value (SEC receptor [2]) was 10 fold. For the same molecule, the Kd (SEC receptor [2]; HepG2 (high) cells, Scatchard analysis) was 50 nM, the Kd (SEC receptor [2]; HepG2 (low) cells) was about 22.5 nM and the Kd (SEC receptor [2]; HuH7 cells) was about 70 nM.
